Source: US5849737A, “Compositions and methods for treating pain” (priority 1995, dated 1998)
“Also recorded” adds a separate entry of the source. Read-outs that look alike come from different tables or passages of the source.

Legend:
[1] = system: tactile allodynia (paw withdrawal thresholds); experiment: Tactile allodynia (50% paw withdrawal threshold, von Frey) after intrathecal drug, L5/L6 spinal nerve ligated rats; format: in vivo, Male Harlan Sprague-Dawley rats; conditions: IT; lidocaine 500 μg, MEGX 500 μg, 3-OH L 58 μg
Protocol: (§1) Male Harlan Sprague-Dawley rats were used (100-200 g). Rats were housed 2-3 to a cage with corn cob bedding and Purina rat chow and water ad libitum, in a standard facility with a 12 h/ 12 h day/night cycle. After surgical procedures involving chronic indwelling catheter insertion, animals were housed singly to prevent catheter damage.
Rats were allowed to recover 5-7 days before further testing or surgeries.
(§2) The catheters were 9 cm in intrathecal length and terminated near the lumbar enlargement. The rostral 3 cm of catheter was tunneled under the skin to externalize between the ears. Rats with neurologic deficits were discarded.
(§3) Monoethylglycinexylidide (MEGX) was dissolved in physiologic saline; 3-hydroxylidocaine (3-OH L) was dissolved in DMSO for intravenous administration.
Intravenous drugs were delivered to awake, unrestrained rats by slow infusion using a syringe pump (Harvard apparatus 22). Intrathecal drugs were delivered to awake, briefly restrained rats in a volume of 10 μl, followed by 10 μl of vehicle flush, using a calibrated tubing extension with a 30-gauge adapter fitting the implanted intrathecal catheter, attached to a geared Hamilton 100 μl glass syringe. IT drug delivery was monitored by observing the advancement of a small air bubble down the tubing.
Rats were placed in a plastic cage with an open wire mesh bottom and allowed to accommodate for approximately fifteen minutes. […] In brief, von Frey hairs were sequentially applied using an up-and-down paradigm to the left mid-plantar hindpaw with sufficient force to cause slight filament buckling. Positive responses were noted if the paw was sharply withdrawn. […] Otherwise, PWT were calculated by noting the stimulus level at which the first change in behavior occurred, collecting four additional responses to the continued up-and-down oscillation of stimulus presentation around the response threshold, and interpolating the 50% response threshold. […] The following equation was used to compute %MPE: [formula]
(§4) Plasma drug levels and PWT were correlated using linear regression. Serially measured PWT and %MPE were compared using repeated measures ANOVA.

[2] = system: P45ONF(human) (P-450 PB-1(rat)(IIIA4) enzyme); conditions: lidocaine metabolite formation; cited from earlier work
[3] = system: tactile allodynia (paw withdrawal thresholds); experiment: Tactile allodynia (50% paw withdrawal threshold, von Frey) after intravenous drug, L5/L6 spinal nerve ligated rats; format: in vivo, Male Harlan Sprague-Dawley rats
From the text: For intravascular access, external jugular catheters were fashioned from PE-50 tubing and inserted into an external jugular vein under halothane/oxygen anesthesia. Arterial catheters were also fashioned from PE-50 with a small bouton 1 cm from the intravascular end for suture securing; they were inserted into a carotid artery, taking care to spare the surrounding nerves. All catheters were flushed with heparinized saline (10 U/ml) and tunneled subcutaneously to emerge at the posterior base of the neck, and capped when not in use. […] Rats were placed in a plastic cage with an open wire mesh bottom and allowed to accommodate for approximately fifteen minutes. A series of 8 von Frey filaments with logarithmically incremental stiffness (0.41, 0.70, 1.20, 2.00, 3.63, 5.50, 8.50, and 15.10 g) (Stoelting, Wood Dale, Ill.) was used to determine the 50% threshold for paw withdrawal to light mechanical stimuli (PWT). In brief, von Frey hairs were sequentially applied using an up-and-down paradigm to the left mid-plantar hindpaw with sufficient force to cause slight filament buckling. Positive responses were noted if the paw was sharply withdrawn. […] Otherwise, PWT were calculated by noting the stimulus level at which the first change in behavior occurred, collecting four additional responses to the continued up-and-down oscillation of stimulus presentation around the response threshold, and interpolating the 50% response threshold. […] The following equation was used to compute %MPE: [formula] Plasma drug levels and PWT were correlated using linear regression. Serially measured PWT and %MPE were compared using repeated measures ANOVA.

[4] = system: peripheral nerve injury pain; conditions: lidocaine intravenous; mexiletine oral; cited from earlier work
neuropathic pain states = conditions: orally available lidocaine congeners; systemically administered local anesthetics; cited from earlier work
[5] = system: painful diabetic neuropathy; conditions: cited from earlier work; for clinical effect in painful diabetic neuropathy: lidocaine intravenous, mexiletine oral
[6] = system: tactile allodynia (paw withdrawal thresholds); experiment: Mechanical allodynia after single i.p. dose in DA rats (left L5/L6 spinal nerve ligation); format: in vivo; conditions: for effect on tactile allodynia, DA rats: single i.p. dose, lidocaine 60 mg/kg, 3-OHL 15 mg/kg (P<0.002)
[7] = DA rats; some species of rats; cited from earlier work
motor function = experiment: Motor and behavioral effects after intrathecal administration
Protocol: as §1
To induce neuropathy, rats were anesthetized with halothane/oxygen, and the left L5/L6 spinal nerves were exposed via a dorsal midline incision and ligated tightly with 6-0 silk suture according to the reported method [Kim S H et al., Pain 50:355-363 (1992)]. Rats were allowed to recover 5-7 days before further testing or surgeries.
as §2, with “Intrathecal PE-10 catheters were implanted under halothane/oxygen anesthesia [Yaksh T L et al., Physiol Behav 17:1031-1036 (1976)]. The catheters” for “The catheters”
as §3
Intravenous drugs were delivered to awake, unrestrained rats by slow infusion using a syringe pump (Harvard apparatus 22). […] IT drug delivery was monitored by observing the advancement of a small air bubble down the tubing.

[8] = system: tactile allodynia (paw withdrawal thresholds); conditions: IV systemic lidocaine, cited from earlier work
[9] = system: centrally organized nociceptive flexion response; conditions: painful diabetic neuropathy; cited from earlier work
[10] = system: sural nerve evoked after discharges; conditions: IV, 1 mg/kg; cited from earlier work
[11] = system: tactile allodynia (paw withdrawal thresholds); experiment: Mechanical allodynia after single i.p. dose in SD rats (left L5/L6 spinal nerve ligation); format: in vivo
[12] = system: wide dynamic range neurons; conditions: IV, 3-4 mg/kg, rat; cited from earlier work
neuromata = conditions: intravenous, whole animals; cited from earlier work
[13] = system: acutely injured peripheral terminals; conditions: in vitro, protein-free system; cited from earlier work
[14] = system: tactile allodynia (paw withdrawal thresholds); conditions: after termination of motor block [Chaplan et al. (1993)]; cited from earlier work
dorsal root ganglion = conditions: intravenous, whole animals; cited from earlier work
[15] = system: polysynaptic C-fiber evoked flexor responses; conditions: IV, 1-5 mg/kg, cited from earlier work
trigeminal neuralgia = conditions: oral; cited from earlier work
[16] = Toxicity and plasma bupivacaine levels on intravenous infusion (GC assay); format: in vivo, Male Harlan Sprague-Dawley rats
From the text: For intravascular access, external jugular catheters were fashioned from PE-50 tubing and inserted into an external jugular vein under halothane/oxygen anesthesia. Arterial catheters were also fashioned from PE-50 with a small bouton 1 cm from the intravascular end for suture securing; they were inserted into a carotid artery, taking care to spare the surrounding nerves. All catheters were flushed with heparinized saline (10 U/ml) and tunneled subcutaneously to emerge at the posterior base of the neck, and capped when not in use.
For bupivacaine assays, samples were obtained by withdrawing and discarding approximately 0.3 cc of blood from arterial cannulae, and then withdrawing samples of approximately 0.5 cc volume. These samples were centrifuged and the plasma supernatant was frozen at -20° C. until analysis. […]
Bupivacaine was quantitated by capillary GC with nitrogen-phosphorus detection [Bjork M et al., Journal of Chromatography 533:229-234 (1990)]. […] Split injections (1.5:1) were performed with a Hewlett Packard 7673A automatic sampler, and the chromatograms were recorded and analyzed with H-P Chemstation (MSDOS) software. […]
as §4

## CCNCC(=O)Nc1c(C)cccc1C [MEGX, Monoethylglycinexylidide]
[1]
  effect on allodynia thresholds after IT delivery: not MEGX, suppressed allodynia; also recorded: no effect on PWT at this limiting dose
[2]
  enzyme producing the metabolite MEGX: produced by the P45ONF(human) (P-450 PB-1(rat)(IIIA4) enzyme
[3]; 20 mg/kg, infused over 60 minutes
  allodynia suppression by IV MEGX: completely devoid of anti-allodynia activity by the intravenous route; also recorded: no effect whatsoever
[3]; MEGX 20 mg/kg IV infused over 60 minutes, baseline 1.7±0.6 g
  PWT post infusion: 1.96 ± 0.4 g

## Cc1cccc(C)c1OCC(C)N (centres unmarked) [mexiletine]
[4]
  clinical effect in peripheral nerve injury pain: analgesic effects
Neuropathic pain states
  clinical efficacy in neuropathic pain states: far from universally effective
  tolerability in neuropathic pain states: in many cases are poorly tolerated due to side effects, including some which may be life-threatening
[5]
  clinical effect in painful diabetic neuropathy: analgesic effects

## CCN(CC)CC(=O)Nc1c(C)cccc1C [lidocaine]
[1]
  effect on allodynia thresholds after IT delivery: no effect on allodynia was seen
[6]; lidocaine 60 mg/kg i.p.
  time of transient effect, DA rats: 30 min
[6]
  effect on tactile allodynia, DA rats: not effective in this regard in DA rats; also recorded: no sustained effect of lidocaine in DA rats
[6]; listed as Lidocaine
  effect on tactile allodynia, DA rats: no sustained effect whatsoever
[7]
  3-hydroxylation / production of 3-OH L in rats: lack of 3-hydroxylation in this strain
[4]
  clinical effect in peripheral nerve injury pain: decreases in spontaneous pain, albeit of short duration
Motor function; 500 μg
  duration of motor dysfunction after IT delivery: approximately 10 minutes
Motor function; lidocaine 500 μg, MEGX 500 μg, 3-OH L 58 μg
  motor effects after IT delivery: acute onset of hindquarter flaccidity
[8]; listed as Lidocaine
  effect on allodynia, intravenous route (earlier reports): effective against allodynia by the intravenous
[8]
  effect on allodynia, intravenous route (earlier reports): long lasting effect by the IV route
[9]
  nociceptive flexion response: suppression of the centrally organized nociceptive flexion response
[10]
  suppression of sural nerve evoked after discharges: suppression of polysynaptic (spinal cord) sural nerve evoked after discharges
[11]; lidocaine 60 mg/kg i.p. single dose, N=6, strain difference P<0.002
  duration of tactile allodynia alleviation, SD rats: more than 16 days
[11]; single i.p. dose, lidocaine 60 mg/kg, 3-OHL 15 mg/kg (P<0.05)
  effect on tactile allodynia, SD rats: sustained effect on tactile allodynia in SD rats; also recorded: persistent effects of lidocaine against allodynia
[12]
  effect on wide dynamic range neuron activity: selectively suppresses the increased wide dynamic range neuronal activity seen ipsilateral to chronic peripheral nerve injury; also recorded: suppresses noxious-evoked activity in wide dynamic range neurons in the rat
neuromata
  ED50 for discharge suppression in neuromata: 6 mg/kg
[13]
  ED50, suppression of spontaneous activity: 5.7 µg/mL
[14]
  anti-allodynic effect, IT / regional route (earlier report): no anti-allodynic effect after termination of motor block
Dorsal root ganglion
  ED50 for discharge suppression, dorsal root ganglion: 1 mg/kg
[5]; intravenous lidocaine, painful diabetic neuropathy
  thermal thresholds: without alteration in thermal thresholds
[5]
  clinical effect in painful diabetic neuropathy: reduced pain scores for several days
[15]
  conduction block at the peripheral terminal: without evidence of conduction block at the peripheral terminal
[15]; mustard oil and noxious heat
  effect on polysynaptic C-fiber evoked flexor responses: suppresses polysynaptic C-fiber evoked flexor responses to mustard oil and noxious heat

## Cc1cccc(C)c1NC(=O)C(C)N (centres unmarked) [tocainide]
Trigeminal neuralgia
  clinical effect in trigeminal neuralgia: analgesic effects
Neuropathic pain states
  clinical efficacy in neuropathic pain states: far from universally effective
  tolerability in neuropathic pain states: in many cases are poorly tolerated due to side effects, including some which may be life-threatening

## CCCCN1CCCCC1C(=O)Nc1c(C)cccc1C (centres unmarked) [bupivacaine]
[16]; IV infusion
  toxicity on intravenous infusion: ataxia and lethargy; also recorded: Higher doses resulted in seizure
[16]; IV, N=4, unit not given
  mean plasma level at higher doses that resulted in seizure: 7.4±0.7
[3]; IV infusion, up to plasma concentrations which caused evident toxicity, 15 samples from 4 rats, P=0.11, linear regression
  effect of intravenous infusion on allodynia: inactive against allodynia; also recorded: no effect on allodynia
[3]; IV, 4 rats, 15 samples, plasma levels up to toxic range (FIG. 1)
  correlation of plasma bupivacaine levels with %MPE (allodynia suppression): lack of correlation
